Laboratory results: patent US20240246942A1, “KINASE INHIBITORS FOR THE TREATMENT OF NEURODEGENERATIVE DISEASES” (priority 2020, published 2024)

Experiments:
Test in all cases: biochemical
[1] = molecular target: T1, panel of 374 wild-type kinases (Homo sapiens, UniProt Q9Y463); conditions: DYRK1B, read-out: % Enzyme Activity (relative to DMSO controls)
T1 construct: purchased Reaction Biology Corporation

[2] = molecular target: T2, panel of 374 wild-type kinases (Homo sapiens, UniProt Q9HBH9); conditions: read-out: % Enzyme Activity (relative to DMSO controls), MNK2
T2 construct: purchased Reaction Biology Corporation
T2 sequence (Q9HBH9 whole entry): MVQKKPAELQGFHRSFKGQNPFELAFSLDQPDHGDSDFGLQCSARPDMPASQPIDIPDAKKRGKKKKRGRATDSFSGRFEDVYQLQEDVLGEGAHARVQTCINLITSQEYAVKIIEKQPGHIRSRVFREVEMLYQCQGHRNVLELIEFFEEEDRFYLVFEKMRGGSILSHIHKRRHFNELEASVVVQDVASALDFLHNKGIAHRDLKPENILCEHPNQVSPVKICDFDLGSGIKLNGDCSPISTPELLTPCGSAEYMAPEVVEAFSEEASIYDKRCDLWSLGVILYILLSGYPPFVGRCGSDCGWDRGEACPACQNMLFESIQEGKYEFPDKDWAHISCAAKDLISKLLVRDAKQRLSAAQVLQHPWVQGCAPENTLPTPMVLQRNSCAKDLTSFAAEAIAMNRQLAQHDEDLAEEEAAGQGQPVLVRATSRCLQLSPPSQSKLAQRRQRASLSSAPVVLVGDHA

[3] = molecular target: T3, panel of 374 wild-type kinases (Homo sapiens, UniProt P51955); conditions: read-out: % Enzyme Activity (relative to DMSO controls), NEK2
T3 construct: purchased Reaction Biology Corporation
T3 sequence (P51955 1-445): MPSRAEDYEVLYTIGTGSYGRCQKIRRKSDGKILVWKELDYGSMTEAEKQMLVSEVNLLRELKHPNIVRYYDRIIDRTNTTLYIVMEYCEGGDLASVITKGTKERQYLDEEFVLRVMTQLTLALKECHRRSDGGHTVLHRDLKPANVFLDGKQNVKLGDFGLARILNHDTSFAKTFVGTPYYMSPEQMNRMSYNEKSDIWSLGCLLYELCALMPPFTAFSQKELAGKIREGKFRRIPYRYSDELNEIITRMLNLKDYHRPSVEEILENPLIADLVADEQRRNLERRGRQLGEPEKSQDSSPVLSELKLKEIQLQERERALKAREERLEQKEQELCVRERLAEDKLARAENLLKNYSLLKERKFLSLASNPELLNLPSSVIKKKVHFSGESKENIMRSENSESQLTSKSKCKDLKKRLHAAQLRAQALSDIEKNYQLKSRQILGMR

[4] = molecular target: T4, panel of 374 wild-type kinases (Homo sapiens, UniProt O94806); conditions: read-out: % Enzyme Activity (relative to DMSO controls), kinase PKCnu/PRKD3
T4 construct: purchased Reaction Biology Corporation
T4 sequence (O94806 1-890): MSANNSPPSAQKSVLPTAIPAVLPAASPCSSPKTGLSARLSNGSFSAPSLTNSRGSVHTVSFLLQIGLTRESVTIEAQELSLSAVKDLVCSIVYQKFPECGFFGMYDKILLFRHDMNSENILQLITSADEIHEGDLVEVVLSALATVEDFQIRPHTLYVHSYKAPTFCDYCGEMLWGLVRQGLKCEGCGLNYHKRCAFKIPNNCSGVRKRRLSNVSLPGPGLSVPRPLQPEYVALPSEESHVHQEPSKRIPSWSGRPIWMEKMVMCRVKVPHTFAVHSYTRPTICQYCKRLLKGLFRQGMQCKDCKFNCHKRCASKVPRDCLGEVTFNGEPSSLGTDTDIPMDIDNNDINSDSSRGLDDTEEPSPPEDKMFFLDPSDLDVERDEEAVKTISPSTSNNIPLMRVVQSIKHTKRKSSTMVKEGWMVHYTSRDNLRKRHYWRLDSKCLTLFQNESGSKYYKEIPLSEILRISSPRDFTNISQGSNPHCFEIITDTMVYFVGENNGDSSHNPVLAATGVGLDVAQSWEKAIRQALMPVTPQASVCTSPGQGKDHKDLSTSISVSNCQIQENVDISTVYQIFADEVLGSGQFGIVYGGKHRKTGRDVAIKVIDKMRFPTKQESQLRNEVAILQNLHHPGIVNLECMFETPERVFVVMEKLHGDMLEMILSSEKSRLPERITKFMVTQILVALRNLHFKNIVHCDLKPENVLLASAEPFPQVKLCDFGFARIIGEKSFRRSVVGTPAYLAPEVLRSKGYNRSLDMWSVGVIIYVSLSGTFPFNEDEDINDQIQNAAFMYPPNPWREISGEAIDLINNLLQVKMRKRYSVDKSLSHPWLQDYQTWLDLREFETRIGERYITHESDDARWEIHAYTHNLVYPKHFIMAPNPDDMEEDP

[5] = molecular target: T5, panel of 374 wild-type kinases (Homo sapiens, UniProt Q9NRH2); conditions: read-out: % Enzyme Activity (relative to DMSO controls), kinase SNRK
T5 construct: purchased Reaction Biology Corporation
T5 sequence (Q9NRH2 1-765): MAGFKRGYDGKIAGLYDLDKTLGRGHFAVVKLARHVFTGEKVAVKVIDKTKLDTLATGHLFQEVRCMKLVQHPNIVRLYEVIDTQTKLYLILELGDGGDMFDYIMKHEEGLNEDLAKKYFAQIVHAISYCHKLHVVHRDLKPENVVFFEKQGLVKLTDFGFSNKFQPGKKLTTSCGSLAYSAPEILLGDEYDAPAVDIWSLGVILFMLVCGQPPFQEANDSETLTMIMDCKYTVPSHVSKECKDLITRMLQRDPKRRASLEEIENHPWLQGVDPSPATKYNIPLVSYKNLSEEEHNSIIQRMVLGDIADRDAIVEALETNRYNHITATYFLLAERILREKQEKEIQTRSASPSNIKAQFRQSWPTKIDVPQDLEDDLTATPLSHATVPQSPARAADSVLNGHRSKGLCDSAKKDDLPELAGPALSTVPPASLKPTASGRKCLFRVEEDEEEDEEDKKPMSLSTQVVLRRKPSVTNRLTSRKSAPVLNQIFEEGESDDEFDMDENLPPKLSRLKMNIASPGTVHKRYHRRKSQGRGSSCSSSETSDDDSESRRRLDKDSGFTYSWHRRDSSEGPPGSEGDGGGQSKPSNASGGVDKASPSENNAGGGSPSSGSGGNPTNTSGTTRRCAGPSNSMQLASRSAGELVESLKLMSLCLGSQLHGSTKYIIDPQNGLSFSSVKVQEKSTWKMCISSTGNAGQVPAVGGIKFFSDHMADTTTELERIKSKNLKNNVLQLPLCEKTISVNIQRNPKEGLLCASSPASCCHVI

[6] = molecular target: T6, panel of 374 wild-type kinases (Homo sapiens, UniProt Q96S53); conditions: read-out: % Enzyme Activity (relative to DMSO controls), kinase TESK2
T6 construct: purchased Reaction Biology Corporation
T6 sequence (Q96S53 whole entry): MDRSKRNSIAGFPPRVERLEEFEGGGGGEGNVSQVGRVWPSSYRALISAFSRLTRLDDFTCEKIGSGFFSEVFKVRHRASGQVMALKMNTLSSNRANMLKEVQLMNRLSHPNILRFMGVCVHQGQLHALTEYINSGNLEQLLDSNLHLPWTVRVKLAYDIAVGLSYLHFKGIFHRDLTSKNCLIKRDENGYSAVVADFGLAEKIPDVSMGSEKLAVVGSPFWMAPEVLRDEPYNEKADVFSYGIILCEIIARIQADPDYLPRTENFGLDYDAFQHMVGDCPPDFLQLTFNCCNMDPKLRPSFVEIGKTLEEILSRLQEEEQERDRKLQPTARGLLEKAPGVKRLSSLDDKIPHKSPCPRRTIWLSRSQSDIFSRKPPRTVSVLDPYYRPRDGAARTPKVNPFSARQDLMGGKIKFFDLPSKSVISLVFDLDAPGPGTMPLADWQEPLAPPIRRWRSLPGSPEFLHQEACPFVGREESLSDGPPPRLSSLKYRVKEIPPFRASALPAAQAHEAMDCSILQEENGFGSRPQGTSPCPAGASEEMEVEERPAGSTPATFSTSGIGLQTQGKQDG

[7] = molecular target: T7, panel of 374 wild-type kinases (Homo sapiens, UniProt Q9H4A3); conditions: read-out: % Enzyme Activity (relative to DMSO controls), kinase WNK1
T7 construct: purchased Reaction Biology Corporation

[8] = molecular target: T8, panel of 374 wild-type kinases (Homo sapiens, UniProt P16591); conditions: read-out: % Enzyme Activity (relative to DMSO controls), FER
T8 construct: purchased Reaction Biology Corporation
T8 sequence (P16591 whole entry): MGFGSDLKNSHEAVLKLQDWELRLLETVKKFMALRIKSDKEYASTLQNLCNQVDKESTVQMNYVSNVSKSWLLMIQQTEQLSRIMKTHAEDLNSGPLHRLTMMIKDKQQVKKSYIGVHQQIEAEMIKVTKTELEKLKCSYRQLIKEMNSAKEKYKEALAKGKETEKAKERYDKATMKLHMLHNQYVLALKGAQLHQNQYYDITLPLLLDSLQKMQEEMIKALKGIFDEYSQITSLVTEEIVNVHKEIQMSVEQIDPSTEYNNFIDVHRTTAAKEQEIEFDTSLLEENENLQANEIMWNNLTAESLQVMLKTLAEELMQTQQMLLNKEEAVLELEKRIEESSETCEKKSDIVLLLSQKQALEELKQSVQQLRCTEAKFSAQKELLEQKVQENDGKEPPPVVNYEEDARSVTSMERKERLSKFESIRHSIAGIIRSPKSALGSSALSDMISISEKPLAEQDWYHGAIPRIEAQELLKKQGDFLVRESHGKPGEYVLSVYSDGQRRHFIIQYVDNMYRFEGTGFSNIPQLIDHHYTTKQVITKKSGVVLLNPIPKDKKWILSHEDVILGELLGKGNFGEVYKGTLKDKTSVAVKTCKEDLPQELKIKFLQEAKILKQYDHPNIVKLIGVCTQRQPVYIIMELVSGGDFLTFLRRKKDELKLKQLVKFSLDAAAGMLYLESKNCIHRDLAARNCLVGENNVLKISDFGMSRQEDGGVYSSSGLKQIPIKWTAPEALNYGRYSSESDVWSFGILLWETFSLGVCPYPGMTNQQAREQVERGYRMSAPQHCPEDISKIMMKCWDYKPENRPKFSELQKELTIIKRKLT

[9] = molecular target: T9, panel of 374 wild-type kinases (Homo sapiens, UniProt Q9P286); conditions: read-out: % Enzyme Activity (relative to DMSO controls), kinase PAK5
T9 construct: purchased Reaction Biology Corporation
T9 sequence (Q9P286 whole entry): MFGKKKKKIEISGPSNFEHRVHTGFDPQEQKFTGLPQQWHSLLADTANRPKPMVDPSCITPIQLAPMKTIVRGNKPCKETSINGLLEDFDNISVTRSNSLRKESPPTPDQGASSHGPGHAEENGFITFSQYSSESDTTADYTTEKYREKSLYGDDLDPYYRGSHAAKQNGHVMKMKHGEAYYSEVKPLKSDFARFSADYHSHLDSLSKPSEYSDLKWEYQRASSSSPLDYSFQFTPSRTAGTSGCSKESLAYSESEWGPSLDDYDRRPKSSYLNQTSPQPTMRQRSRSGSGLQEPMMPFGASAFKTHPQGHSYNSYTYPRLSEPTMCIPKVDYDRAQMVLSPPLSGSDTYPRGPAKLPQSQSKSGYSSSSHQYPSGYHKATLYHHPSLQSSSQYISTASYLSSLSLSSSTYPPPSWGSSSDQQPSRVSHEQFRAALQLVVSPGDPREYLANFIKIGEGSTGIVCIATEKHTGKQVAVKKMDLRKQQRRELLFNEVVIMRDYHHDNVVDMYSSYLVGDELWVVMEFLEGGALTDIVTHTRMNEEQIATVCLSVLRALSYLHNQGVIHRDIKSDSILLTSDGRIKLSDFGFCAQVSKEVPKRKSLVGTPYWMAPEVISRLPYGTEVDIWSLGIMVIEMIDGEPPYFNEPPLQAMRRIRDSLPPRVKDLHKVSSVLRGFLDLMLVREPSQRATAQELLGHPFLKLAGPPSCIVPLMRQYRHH

[10] = molecular target: T10, panel of 374 wild-type kinases (Homo sapiens, UniProt Q86UE8); conditions: read-out: % Enzyme Activity (relative to DMSO controls), kinase TLK2
T10 construct: purchased Reaction Biology Corporation
T10 sequence (Q86UE8 whole entry): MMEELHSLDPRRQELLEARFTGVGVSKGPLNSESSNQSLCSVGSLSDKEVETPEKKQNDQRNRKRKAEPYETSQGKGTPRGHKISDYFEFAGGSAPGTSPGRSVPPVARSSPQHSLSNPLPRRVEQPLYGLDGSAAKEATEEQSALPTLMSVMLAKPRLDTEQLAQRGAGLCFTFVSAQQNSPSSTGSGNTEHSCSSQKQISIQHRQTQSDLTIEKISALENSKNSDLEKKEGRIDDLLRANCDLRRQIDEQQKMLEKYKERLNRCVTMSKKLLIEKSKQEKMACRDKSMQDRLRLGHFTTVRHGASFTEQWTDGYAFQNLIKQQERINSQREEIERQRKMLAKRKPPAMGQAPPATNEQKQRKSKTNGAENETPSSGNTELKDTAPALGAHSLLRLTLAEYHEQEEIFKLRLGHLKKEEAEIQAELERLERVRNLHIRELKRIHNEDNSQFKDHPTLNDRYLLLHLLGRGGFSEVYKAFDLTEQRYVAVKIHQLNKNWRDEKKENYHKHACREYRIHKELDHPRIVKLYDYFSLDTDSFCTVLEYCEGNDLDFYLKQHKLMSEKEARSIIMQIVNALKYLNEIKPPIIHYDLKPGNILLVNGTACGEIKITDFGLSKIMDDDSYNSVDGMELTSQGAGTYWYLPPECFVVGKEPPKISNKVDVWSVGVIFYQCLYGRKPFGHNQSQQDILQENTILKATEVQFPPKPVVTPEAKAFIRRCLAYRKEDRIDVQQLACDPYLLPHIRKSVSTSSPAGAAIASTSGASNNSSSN

T1 sequence (Q9Y463 whole entry): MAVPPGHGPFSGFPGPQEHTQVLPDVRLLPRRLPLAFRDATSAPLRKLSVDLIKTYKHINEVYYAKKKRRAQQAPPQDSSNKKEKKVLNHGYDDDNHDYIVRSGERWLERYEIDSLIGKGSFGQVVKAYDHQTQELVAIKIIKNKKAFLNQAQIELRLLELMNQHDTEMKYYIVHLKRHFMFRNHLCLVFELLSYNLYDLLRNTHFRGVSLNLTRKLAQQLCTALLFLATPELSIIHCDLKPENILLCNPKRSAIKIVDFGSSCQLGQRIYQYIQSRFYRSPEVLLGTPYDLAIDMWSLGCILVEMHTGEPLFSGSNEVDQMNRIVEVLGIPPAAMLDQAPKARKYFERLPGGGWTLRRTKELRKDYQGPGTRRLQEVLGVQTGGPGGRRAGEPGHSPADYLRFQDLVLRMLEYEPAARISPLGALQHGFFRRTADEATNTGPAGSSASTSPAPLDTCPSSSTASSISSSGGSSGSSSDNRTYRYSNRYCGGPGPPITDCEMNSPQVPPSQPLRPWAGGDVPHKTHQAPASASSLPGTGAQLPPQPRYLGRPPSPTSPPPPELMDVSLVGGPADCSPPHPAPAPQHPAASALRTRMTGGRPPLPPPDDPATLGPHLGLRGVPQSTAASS

Row | Structure (SMILES) | remaining activity at 10 µM ([1]; 10 uM) [%] | remaining activity at 10 µM ([2]; 10 uM) [%] | remaining activity at 10 µM ([3]; 10 uM) [%] | remaining activity at 10 µM ([4]; 10 uM) [%] | remaining activity at 10 µM ([5]; 10 uM) [%] | remaining activity at 10 µM ([6]; 10 uM) [%] | remaining activity at 10 µM ([7]; 10 uM) [%] | remaining activity at 10 µM ([8]; 10 uM) [%] | remaining activity at 10 µM ([9]; 10 uM) [%] | remaining activity at 10 µM ([10]; 10 uM) [%] | remaining activity at 5 µM [1] [%] | remaining activity at 5 µM [2] [%] | remaining activity at 5 µM [3] [%] | remaining activity at 5 µM [4] [%] | remaining activity at 5 µM [5] [%] | remaining activity at 5 µM [6] [%] | remaining activity at 5 µM [7] [%] | remaining activity at 5 µM [8] [%] | remaining activity at 5 µM [9] [%] | remaining activity at 5 µM [10] [%]
1 | Cc1sc(C(=O)NC2COC2)cc1-n1cc(NC(=O)Nc2c(F)cccc2Cl)cn1 [Compound 27, 4-(4-(3-(2-chloro-6-fluorophenyl)ureido)-1H-pyrazol-1-yl)-5-methyl-N-(oxetan-3-yl)thiophene-2-carboxamide] | 105 | 83.4 | 88 | 105 | 102 | 99.2 | 88.9 | 90 | 103 | 97.2 |  |  |  |  |  |  |  |  |  | 
2 | O=C(Nc1cnn(-c2csc(C(=O)NC3COC3)c2)c1)Nc1c(F)cccc1Cl [Compound 25, 4-(4-(3-(2-chloro-6-fluorophenyl)ureido)-1H-pyrazol-1-yl)-N-(oxetan-3-yl)thiophene-2-carboxamide] |  |  |  |  |  |  |  |  |  |  | 82.8 | 90.8 | 96.2 | 105 | 98.8 | 80.1 | 93.3 | 89.8 | 92.9 | 109
3 | O=C(Nc1cnn(-c2csc(C(=O)NC3COC3)c2)c1)Nc1ccccc1Cl [Compound 17, 4-(4-(3-(2-chlorophenyl)ureido)-1H-pyrazol-1-yl)-N-(oxetan-3-yl)thiophene-2-carboxamide] |  |  |  |  |  |  |  |  |  |  | 87 | 99.3 | 104 | 104 | 96.8 | 93.3 | 99.7 | 101 | 92.1 | 99.1
